Where a name gives a salt, the structure may show the parent alone.

Assay [1] has as its system human c-mpl-Ba/F3 cells. Nature of the assay: Human c-mpl-Ba/F3 cell proliferation test. The class given is cell-based. The note with it: for pot.: concentration promoting cell proliferation to 30% of maximum cell proliferation activity value of Example 9 (of rhTPO for rhTPO), 24 hours culture; for Efficacy: maximum cell proliferation activity, maximum of Example 9 (of rhTPO for rhTPO) set to 100%. Here is the method: In a 96 well microplate, 2×10^5 cells/ml of human c-mpl-Ba/F3 cells were cultured at 37° C. for 24 hours with 10% fetal bovine serum containing a RPMI1640 medium (100 μl/well) to which varied concentrations of tested compounds were respectively added. After the culturing, 10 μl/well of WST-1/1-methoxy PMS (cell counting kit, Dojindo) were added. Immediately after the adding and after 2 hours, absorbance of A450/A650 was measured with a microplate reader (Model 3350:Bio-Rad), and the absorbance increase after 2 hours was regarded as proliferation activity of each tested compound.
pot.: Concentration of tested compound for promoting cell proliferation of the compound of Example 9 (compound of Example 9 and rhTPO in rhTPO) to 30% of maximum cell proliferation activity value.
Efficacy: Maximum cell proliferation activity value of tested compound when the maximum cell proliferation activity value of the compound of Example 9 (compound of Example 9 and rhTPO in rhTPO) is set to 100%.

Assay [2] relates to human c-mpl-Ba/F3 cells. Nature of the assay: Oral administration test for mice (c-mpl-Ba/F3 proliferation activity of plasma). The class given is in vivo. Conditions: male ICR mice, final plasma concentration 10%, maximum of each tested compound = 100%. The procedure: To male ICR mice, a tested compound dissolved or suspended in 0.5% methylcellulose aqueous solution was orally administrated in an amount of 100 mg/kg or 10 mg/kg. […] Plasma obtained by centrifugation at 12,000 rpm for 3 minutes was warmed up at 56° C. for 30 minutes, and added to the human c-mpl.Ba/F3 cell proliferation system described in (i) such that the final plasma concentration became 10%, and then cell proliferation activity was measured. The cell proliferation activity (%) of each plasma batch, when maximum cell proliferation activity of each tested compound was set to 100%, was calculated.

For another assay, the system named is Human CD34+ cells. The experiment in a line: Test for measuring effects of promoting the formation of megakaryocytic colonies. The class given is cell-based. Conditions: megakaryocytic colonies per well, 10-14 days. The procedure: Human CD34^+ cells were cultured at 37° C. for 10-14 days in the presence of tested materials in a 2 well chamber slide, using MegaCult™-C (Stem Cell Technologies). In accordance with the attached instructions, dehydration, fixing, and staining with antihuman glycoprotein IIb/IIIa antibody were carried out. A group of 3 or more stained megakaryocytes was regarded as 1 colony, and the number of colonies per well was measured with a microscope. EC30 values of each tested compound were calculated from a capacity curve.

Where [3] appears, read: plasma 2 hours after 100 mg/kg p.o.
Setting [4] is: plasma 2 hours after 10 mg/kg p.o.

In the assay with human c-mpl-Ba/F3 cells [1], `O=C1NC(=S)S/C1=C\c1ccc(C(=O)Nc2nc(-c3ccc(Cl)c(Cl)c3)cs2)cc1` [Control 1, reference compound] yielded a pot. of 4.4 nM and an Efficacy of 101%. Moreover, the Cell proliferation activity in the assay with human c-mpl-Ba/F3 cells [2] (setting [3]) is listed as <10%.

On to “rhTPO: thrombopoietin (TPO), a c-Mpl ligand playing an important role in differentiation into megakaryocytes”, for which, in the assay with human c-mpl-Ba/F3 cells [1], the pot. is listed as 0.012 nM and the Efficacy was found to be 100%.

In the assay on human c-mpl-Ba/F3 cells [1], `Cc1sc(NC(=O)c2ccc(/C=C(\Cl)C(=O)O)cc2)nc1-c1cccc(C(F)(F)F)c1` [Control 3, reference compound] yielded a pot. of 6.9 nM and an Efficacy of 96%. Besides, the Cell proliferation activity in the assay with human c-mpl-Ba/F3 cells [2] (setting [3]) is <10%.

Regarding `O=C(Nc1nc(-c2cc(Cl)cs2)c(N2CCN(C3CCCCC3)CC2)s1)c1cnc(OCCCO)c(Cl)c1` [Example 250, 5-chloro-N-[4-(4-chlorothiophen-2-yl)-5-(4-cyclohexylpiperazin-1-yl)thiazol-2-yl]-6-(3-hydroxypropoxy)nicotinamide], in the assay on human c-mpl-Ba/F3 cells [1], the pot. is recorded as 6.7 nM and the Efficacy is 87%. In the assay with Human CD34+ cells, this molecule gave an EC30 of 26 nM. Moreover, the Cell proliferation activity in the assay with human c-mpl-Ba/F3 cells [2] (setting [4]) is on record as >80%.

Turning to `O=C(Nc1nc(-c2cc(Cl)cs2)c(N2CCN(C3CCCCC3)CC2)s1)c1ccc2cnccc2c1` [Example 214, N-[4-(4-chlorothiophen-2-5-yl)-5-(4-cyclohexylpiperazin-1-yl)thiazol-2-yl]isoquinoline-6-carboxamide], in the assay on human c-mpl-Ba/F3 cells [1], the pot. amounted to 15 nM and the Efficacy is reported as 106%. Moreover, the Cell proliferation activity in the assay with human c-mpl-Ba/F3 cells [2] (setting [4]) is >80%.

Turning to `O=C(Nc1nc(-c2cc(Cl)cs2)c(N2CCN(C3CCCCC3)CC2)s1)c1ccc(OCCO)c(Cl)c1` [Example 9, 3-chloro-N-[4-(4-chlorothiophen-2-yl)-5-(4-cyclohexylpiperazin-1-yl)thiazol-2-yl]-4-(2-hydroxyethoxy)benzamide hydrochloride], in the assay with human c-mpl-Ba/F3 cells [1], the pot. is given as 10 nM and the Efficacy is 87%. In addition, the EC30 in the assay on Human CD34+ cells is reported as 12 nM.

In the assay on human c-mpl-Ba/F3 cells [1], `Cl.O=C(Nc1nc(-c2cc(Cl)cs2)c(N2CCN(C3CCCCC3)CC2)s1)c1cnc(N2CCC(C(=O)O)CC2)c(Cl)c1` [Example 16, 1-(3-chloro-5-{[4-(4-chlorothiophen-2-yl)-5-(4-cyclohexylpiperzain-1-yl)thiazol-2-yl]carbamoyl}pyridin-2-yl)piperidine-4-carboxylic acid hydrochloride] gave a pot. of 2.4 nM and an Efficacy of 93%. Further, the Cell proliferation activity with human c-mpl-Ba/F3 cells [2] (setting [4]) is reported as >80%.

For `CCCC1CCN(c2sc(NC(=O)c3ccnc(OC)c3)nc2-c2cc(Cl)cs2)CC1` [Example 66], in the assay with human c-mpl-Ba/F3 cells [1], the pot. is given as 14 nM and the Efficacy came out at 99%. In the assay with Human CD34+ cells, the EC30 is 47 nM. The Cell proliferation activity with human c-mpl-Ba/F3 cells [2] (setting [4]) is reported as 61%.

Consider `O=C(O)/C(Cl)=C/c1ccc(C(=O)Nc2nc(-c3ccc(Cl)c(Cl)c3)cs2)cc1` [Control 2, reference compound], for which, in the assay with human c-mpl-Ba/F3 cells [1], the pot. is given as 2.1 nM and the Efficacy came out at 96%. Also, the Cell proliferation activity in the assay on human c-mpl-Ba/F3 cells [2] (setting [3]) is given as <10%.

Consider `CCCN1CCN(c2sc(NC(=O)c3ccc(OCCO)c(Cl)c3)nc2-c2cc(Cl)cs2)CC1` [Example 103, 3-chloro-N-[4-(4-chlorothiophen-2-yl)-5-(4-propylpiperazin-1-yl)thiazol-2-yl]-4-(2-hydroxyethoxy)benzamide], for which, in the assay with human c-mpl-Ba/F3 cells [1], the pot. is 18 nM and the Efficacy is 97%.

A word on the EC30: it is the point of the concentration-response curve where the effect stands at 30%. A lower EC30 goes with an effect from little substance.

The record behind these values is patent publication US8338429B2, “2-acylaminothiazole derivative or salt thereof” (Astellas Pharma, Inc., priority 2002, dated 2012).
